Here are results for five compounds from US11286251B2, “Matrix metalloproteinase inhibitors and imaging agents, and methods using same” (Yale University, priority 2016, dated 2022).

Molecules are shown by their SMILES. “Also recorded” adds a separate entry of the source. Where two headings read alike, the source gives them in different places.

The target of data set [1] is rhMMP-12 (Homo sapiens, UniProt P39900). Nature of the data set: MMP inhibition assay, fluorogenic substrate cleavage (Ki).
Procedure: (§1) MMPs were purchased from R&D Systems (Minneapolis, Minn.). MMP inhibition assays were carried out in 50 mM Tris/HCl buffer, pH=6.8, 10 mM CaCl2 at 25° C. […] Titration experiments were carried out to determine active enzyme concentration for each MMP prior to the assay. For each probe, the % of inhibition was determined from five different concentrations in triplicates, chosen to reach a range of 20-80% inhibition.
(§2) The recombinant human MMPs including rhMMP-2, rhMMP-9, and rhMMP-12 obtained from R&D Systems (Minneapolis, Minn., USA) were activated by 1 mM p-aminophenylmercuric acetate (APMA, Sigma) at 37° C. for certain hours according to the manufacturer's instructions. The activated MMPs were diluted in the assay buffer consisting of 50 mM Tris, 10 mM CaCl2, 150 mM NaCl, 0.05% Brij-35 (w/v), pH 7.5 (TCNB). The assays were carried out in 96-well non-binding surface black microplates (Fisher Scientific).
(§3) The solutions were incubated at room temperature for 20 min. 10 μL of the fluorogenic MMP substrate i.e. Mca-KPLGL-Dpa-AR-NH2 (R&D Systems) at 4 different concentrations (such as 50.0 μM, 40.0 μM, 30.0 μM, and 20.0 μM) in assay buffer were added before starting the fluorescence measurements. The kinetics (v) of fluorescence changes were measured at excitation and emission wavelengths of 320 nm and 405 nm for 30 min (1.44 min intervals, sensitivity 100, shaking intensity 4, duration 30 s) by a fluorescent plate reader (BIO-TEK/Synergy HT). The inhibition constants (Ki) of the inhibitor with MMPs were calculated from the mean velocity values using GraphPad Prism 6 by the equation:
For data set [2], the target named is rhMMP-9 (Homo sapiens, UniProt P14780). Described as above.
Procedure: (§4) MMP inhibition assays were carried out in 50 mM Tris/HCl buffer, pH=6.8, 10 mM CaCl2 at 25° C. […] Titration experiments were carried out to determine active enzyme concentration for each MMP prior to the assay.
as §2
(§5) The solutions were incubated at room temperature for 20 min. 10 μL of the fluorogenic MMP substrate i.e. Mca-KPLGL-Dpa-AR-NH2 (R&D Systems) at 4 different concentrations (such as 50.0 μM, 40.0 μM, 30.0 μM, and 20.0 μM) in assay buffer were added before starting the fluorescence measurements. […] The inhibition constants (Ki) of the inhibitor with MMPs were calculated from the mean velocity values using GraphPad Prism 6 by the equation:
Data set [3] addresses T1, rhMMP-2 (Homo sapiens, UniProt P08253).
T1 sequence (P08253 110-660): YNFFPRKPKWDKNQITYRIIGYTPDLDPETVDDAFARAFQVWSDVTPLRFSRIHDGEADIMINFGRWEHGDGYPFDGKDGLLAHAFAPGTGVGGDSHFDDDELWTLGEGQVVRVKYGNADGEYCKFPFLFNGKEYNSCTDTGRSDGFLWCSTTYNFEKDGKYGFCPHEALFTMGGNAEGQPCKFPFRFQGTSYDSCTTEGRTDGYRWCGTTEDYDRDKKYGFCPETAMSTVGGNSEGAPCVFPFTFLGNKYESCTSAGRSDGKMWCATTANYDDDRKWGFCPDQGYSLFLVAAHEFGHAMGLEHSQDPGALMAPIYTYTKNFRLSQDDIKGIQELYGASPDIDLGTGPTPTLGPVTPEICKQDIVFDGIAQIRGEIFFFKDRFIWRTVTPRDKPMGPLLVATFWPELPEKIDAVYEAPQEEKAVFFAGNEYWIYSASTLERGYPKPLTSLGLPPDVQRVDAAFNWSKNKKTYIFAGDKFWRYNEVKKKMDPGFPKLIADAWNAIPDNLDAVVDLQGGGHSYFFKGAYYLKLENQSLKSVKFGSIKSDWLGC
The data set is described as above.
Procedure: as §4, §2, §5

Data set [4] has as its target rhMMP-13 (Homo sapiens, UniProt P45452). The description is as above. As to conditions: read-out: Ki rhMMP-13; mean ± SE.
Procedure: as §1, §2, §3
Data set [5] concerns rhMMPs. Nature of the data set: In vitro MMP binding screens (panel). As to conditions: several MMPs.
Procedure: as §1, §2, §3
Data set [6] deals with T2, rhMMP-7 (Homo sapiens, UniProt P09237).
T2 sequence (P09237 95-267): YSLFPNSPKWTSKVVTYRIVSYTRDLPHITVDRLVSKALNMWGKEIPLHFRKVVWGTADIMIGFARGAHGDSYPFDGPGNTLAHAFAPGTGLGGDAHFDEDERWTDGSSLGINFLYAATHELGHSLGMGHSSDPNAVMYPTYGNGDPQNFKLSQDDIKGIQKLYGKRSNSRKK
Nature of the data set: MMP inhibition assay, fluorogenic substrate cleavage (Ki). As to conditions: read-out: Ki rhMMP-7; mean ± SE.
Procedure: as §1, §2, §3

A short description of data set [7]: Aqueous solubility. The format is physicochemical.
Setting [8] is: read-out: Ki rhMMP-12, mean ± SE.
[9] abbreviates: read-out: Ki rhMMP-9, mean ± SE.
Where [10] appears, read: read-out: Ki rhMMP-2, mean ± SE.

rhMMP-9, sequence (P14780 107-707 limits assumed): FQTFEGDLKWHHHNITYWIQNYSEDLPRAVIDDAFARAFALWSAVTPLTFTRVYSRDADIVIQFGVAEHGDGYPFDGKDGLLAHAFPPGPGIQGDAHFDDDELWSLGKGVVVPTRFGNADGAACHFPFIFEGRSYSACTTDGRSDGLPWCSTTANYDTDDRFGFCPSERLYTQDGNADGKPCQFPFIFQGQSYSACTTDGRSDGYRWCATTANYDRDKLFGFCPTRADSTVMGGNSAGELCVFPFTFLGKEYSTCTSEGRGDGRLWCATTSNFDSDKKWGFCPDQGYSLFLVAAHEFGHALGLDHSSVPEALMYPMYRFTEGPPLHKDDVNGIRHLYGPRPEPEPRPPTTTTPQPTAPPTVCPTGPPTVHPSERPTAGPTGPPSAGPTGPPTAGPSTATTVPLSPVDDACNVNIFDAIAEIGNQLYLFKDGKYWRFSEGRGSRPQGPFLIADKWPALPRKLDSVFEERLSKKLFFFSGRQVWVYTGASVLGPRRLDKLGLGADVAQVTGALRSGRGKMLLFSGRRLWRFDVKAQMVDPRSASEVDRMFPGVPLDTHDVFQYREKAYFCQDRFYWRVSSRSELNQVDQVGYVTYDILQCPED
rhMMP-12, sequence (P39900 106-470): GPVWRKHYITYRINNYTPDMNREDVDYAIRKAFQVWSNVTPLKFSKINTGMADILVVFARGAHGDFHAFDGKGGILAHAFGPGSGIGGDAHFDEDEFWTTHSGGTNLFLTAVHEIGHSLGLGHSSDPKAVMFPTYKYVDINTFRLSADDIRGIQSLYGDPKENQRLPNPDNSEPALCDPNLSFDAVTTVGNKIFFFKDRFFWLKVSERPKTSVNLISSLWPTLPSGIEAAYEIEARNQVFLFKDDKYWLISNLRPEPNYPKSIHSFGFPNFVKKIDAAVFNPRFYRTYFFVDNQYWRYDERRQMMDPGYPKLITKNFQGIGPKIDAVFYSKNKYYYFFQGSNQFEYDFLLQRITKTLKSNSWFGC

What is called Ki is a measure of affinity in units of concentration, obtained from inhibition or displacement. For `CC(C)C[C@H]1C(=O)N[C@H](C(=O)O)Cc2ccc(cc2)OCCC[C@@H]1C(=O)NO` [Compound 20, (6S,7R,10S)-6-(hydroxycarbamoyl)-7-isobutyl-8-oxo-2-oxa-9-aza-1(1,4)-benzenacycloundecaphane-10-carboxylic acid], the Ki in data set [1] was 1.7 ± 0.2 nM; in data set [2], 60.6 ± 11 nM; in data set [3], 101 ± 12.2 nM.

On to `CNC(=O)[C@H](CCCNC(=N)N)NC(=O)[C@@H]1Cc2ccc(cc2)OCCC[C@H](C(=O)NO)[C@@H](CC(C)C)C(=O)N1` [Compound 19, (6S,7R,10S)—N10-((S)-5-guanidino-1-(methylamino)-1-oxopentan-2-yl)-N6-hydroxy-7-isobutyl-8-oxo-2-oxa-9-aza-1(1,4)-benzenacycloundecaphane-6,10-dicarboxamide], for which the Ki is 15.3 ± 5.4 nM in data set [4]; 1 ± 0.2 nM in data set [1] (setting [8]); 20.4 ± 2 nM in data set [2] (setting [9]); 5.8 ± 0.4 nM in data set [3] (setting [10]); 17.1 ± 0.1 nM in data set [6]. The “MMP binding / inhibition constants (in words)” value in data set [5] was “MMP binding profiles similar to the RP805 precursor”.

In the case of `CC(C)CC1C(=O)NC(C(=O)NCCOCCOCCOCCF)Cc2ccc(cc2)OCCCC1C(=O)NO` [Compound 17, (6S,7R,10S)—N10-(2-(2-(2-(2-fluoroethoxy)ethoxy)ethoxy)ethyl)-N^6-hydroxy-7-isobutyl-8-oxo-2-oxa-9-aza-1(1,4)-benzenacycloundecaphane-6,10-dicarboxamide], the Ki came out at 2.1 ± 0.3 nM in data set [1] (setting [8]), 8.8 ± 0.8 nM in data set [2] (setting [9]) and 8.6 ± 1.3 nM in data set [3] (setting [10]).

Consider `CC(C)CC1C(=O)NC(C(=O)NC(CCCNC(=N)N)C(=O)NCCNC(=O)c2ccc(NN)nc2)Cc2ccc(cc2)OCCCC1C(=O)NO` [Compound 1, (6S,7R,10S)—N^10—((S)-5-guanidino-1-((2-(6-hydrazinylnicotinamido)ethyl)amino)-1-oxopentan-2-yl)-N^6-hydroxy-7-isobutyl-8-oxo-2-oxa-9-aza-1(1,4)-benzenacycloundecaphane-6,10-dicarboxamide], for which the Ki in data set [4] worked out at 16.9 ± 2.7 nM; in data set [1] (setting [8]) it was 2.2 ± 0.5 nM; in data set [2] (setting [9]), 17.4 ± 2.1 nM; in data set [3] (setting [10]), 10.4 nM; in data set [6], 33.2 ± 5 nM. Besides, the “affinity for rhMMP-12 (in words)” value in data set [1] is on record as “high affinity”. In addition, the “affinity for rhMMP-9 (in words)” value in data set [2] is “high affinity”. Moreover, the “MMP binding / inhibition constants (in words)” value in data set [5] is “MMP binding profiles similar to the RP805 precursor; also recorded: nanomolar range inhibition constants”. In data set [3], the “affinity for rhMMP-2 (in words)” value was “high affinity”. Moreover, in data set [7], the “water solubility (in words)” value is listed as “good aqueous solubility; also recorded: good water solubility”.

Regarding `CNC(=O)[C@H](Cc1c[nH]c2ccccc12)NC(=O)[C@@H](CC(=O)NO)CC(C)C` [GM-6001, reference compound], the Ki in data set [4] is 0.3 nM; in data set [1] it was 0.57 nM; in data set [6], 0.4 nM.
